The results in this text go back to patent US11932652B2, “Pyrrolidinyl urea derivatives and application thereof in TrkA-related diseases” (ZHANGZHOU PIEN TZE HUANG PHARMACEUTICAL CO., LTD., priority 2018, dated 2024).

Molecules are shown by their SMILES.

Data set [1] in a line: In vivo pharmacokinetics in rats after single administration. Particulars: male, Sprague-Dawley, rat, plasma, 10 mg/kg, 10 mpk oral administration. The method, then:
Male SD rats were used as test animals, and the concentration of the compound in blood was determined after single administration to evaluate the pharmacokinetic behavior.
Sprague Dawley rats (male, 200-300 g, 7-9 weeks, Shanghai Charles River Laboratory Animal Co., Ltd.)
The pharmacokinetic characteristics of the test compound in rodents after intravenous injection and oral administration were tested by standard protocols, in the experiment, the test compound was prepared into a clear solution or homogeneous suspension, and administered to the rats by single intravenous injection and oral administration. In the intravenous injection group, the menstruum was a certain proportion of ethanol and physiological saline solution or a certain proportion of dimethyl sulfoxide in HP-β cyclodextrin solution (pH was adjusted to 3-4), the mixture was vortexed and stirred to prepare 2 mg/mL or 1 mg/mL clear solution, then filtered with microporous membrane for later use; in the oral administration group, the menstruum was a certain proportion of sodium carboxymethyl cellulose solution or a certain proportion of dimethyl sulfoxide in HP-0 cyclodextrin solution (pH was adjusted to about 4), after the test compound was mixed with the solvent, the mixture was vortexed and stirred to prepare 2 mg/mL or 1 mg/mL homogeneous suspension or clear solution for later use. After 2 mg/kg intravenous administration or 10 mg/kg oral administration to rats, a certain amount of whole blood samples were collected, centrifuged at 3000 g for 15 minutes, the supernatant was separated to give the plasma samples; then an acetonitrile solution containing internal standard with a volume 3 times that of the plasma sample was added to precipitate proteins, and then centrifuged; the supernatant was separated, and water with a volume twice that of the supernatant was added to the supernatant, which was then centrifuged again; the supernatant was collected for analysis; LC-MS/MS analysis method was used to quantitatively analyze the blood drug concentration, and Phoenix WinNonlin software (Pharsight, USA) was used to calculate the pharmacokinetic parameters, such as peak concentration, time to peak concentration, clearance rate, half-life, area under the concentration-time curve, bioavailability, etc.
Among them, C0 is the initial concentration, T1/2 is the elimination half-life, Vdss is the steady-state apparent volume of distribution, Cl is the total clearance rate, AUC0-inf is the area under the plasma drug concentration-time curve from time 0 to infinity, Cmax is the peak concentration, Tmax is the time to peak concentration.

For another data set, the target named is T1, CYP2C19 (Homo sapiens, UniProt P33261).
T1 construct: from tissue; host or cells: human liver microsomes
Nature of the data set: Cytochrome P450 isozyme inhibitory activity test, CYP2C19. Type of data set: in vitro ADME. Particulars: heading: Cytochrome P450 isozyme IC50, CYP2C19; human liver microsome. The method, then:
(§1) Determination of the inhibitory activity of the test compound on different human cytochrome P450 isozymes.
(§2) The test compound, standard inhibitor (100×final concentration), and a mixed substrate working solution were prepared; the microsome frozen in −80° C. refrigerator was thawed. 2 μL of the test compound and standard inhibitor solution was added to the corresponding wells, and at the same time 2 μL of the corresponding solvent was added to the non-inhibitor control wells (NIC) and blank control wells (Blank) wells; then 20 μL of mixed substrate solution was added to the corresponding wells, except for the Blank wells (20 μL of PB was added to the Blank wells); a human liver microsome solution was prepared (put back into the refrigerator immediately after using and marking the date), and then 158 μL of the human liver microsome solution was added to all wells; the above sample plate was placed in a 37° C. water bath for pre-incubation, then the coenzyme factor (NADPH) solution was prepared; 10 minutes later, 20 μL of the NADPH solution was added to all wells, and the sample plate was shaken well, placed in a 37° C. water bath and incubated for 10 minutes; at the corresponding time point, 400 μL of cold acetonitrile solution (internal standard: 200 ng/mL tolbutamide and labetalol) was added to terminate the reaction; the sample plate was evenly mixed, centrifuged at 4000 rpm for 20 minutes to precipitate proteins; 200 μL of the supernatant was added to 100 μL of water, shook well, and tested by LC/MS/MS.

Another data set deals with T2, CYP3A4 (Homo sapiens, UniProt P08684).
T2 construct: from tissue; host or cells: human liver microsomes
Nature of the data set: Cytochrome P450 isozyme inhibitory activity test, CYP3A4. Type of data set: in vitro ADME. The following applies: heading: Cytochrome P450 isozyme IC50, CYP3A4; human liver microsome. The method, then:
as §1, §2

T2 sequence (P08684 whole entry): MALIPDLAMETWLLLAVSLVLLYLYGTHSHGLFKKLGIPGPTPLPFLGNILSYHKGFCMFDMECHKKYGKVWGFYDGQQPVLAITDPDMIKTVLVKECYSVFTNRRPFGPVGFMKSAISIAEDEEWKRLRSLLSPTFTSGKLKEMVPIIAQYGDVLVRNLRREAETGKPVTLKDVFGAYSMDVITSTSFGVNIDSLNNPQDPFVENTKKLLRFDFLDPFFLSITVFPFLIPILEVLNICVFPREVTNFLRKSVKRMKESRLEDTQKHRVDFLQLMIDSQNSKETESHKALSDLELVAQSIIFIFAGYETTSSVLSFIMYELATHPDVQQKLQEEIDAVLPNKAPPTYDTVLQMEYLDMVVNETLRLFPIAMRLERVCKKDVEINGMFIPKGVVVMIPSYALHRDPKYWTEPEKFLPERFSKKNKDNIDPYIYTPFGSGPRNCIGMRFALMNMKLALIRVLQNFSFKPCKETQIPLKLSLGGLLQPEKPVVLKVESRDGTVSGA
T1 sequence (P33261 whole entry): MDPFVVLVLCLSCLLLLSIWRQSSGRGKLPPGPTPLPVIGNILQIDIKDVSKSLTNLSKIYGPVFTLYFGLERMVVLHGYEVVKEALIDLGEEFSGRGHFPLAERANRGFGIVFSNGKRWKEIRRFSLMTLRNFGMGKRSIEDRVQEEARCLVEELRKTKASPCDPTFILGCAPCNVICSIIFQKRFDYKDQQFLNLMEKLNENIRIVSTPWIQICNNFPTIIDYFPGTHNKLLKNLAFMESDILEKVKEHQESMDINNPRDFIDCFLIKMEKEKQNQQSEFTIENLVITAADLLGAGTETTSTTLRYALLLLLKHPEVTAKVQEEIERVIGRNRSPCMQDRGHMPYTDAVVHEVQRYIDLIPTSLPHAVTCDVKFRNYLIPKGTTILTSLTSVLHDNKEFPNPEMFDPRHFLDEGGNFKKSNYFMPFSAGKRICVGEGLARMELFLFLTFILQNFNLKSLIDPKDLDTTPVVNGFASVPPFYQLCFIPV

Turning to `COCCN1C[C@@H](n2ccc(F)c2)[C@H](NC(=O)Nc2c(C)c(-c3cnc(C4(F)COC4)nc3)nn2-c2ccccc2)C1` [Compound 7], in data set [1], the AUC(0-inf) was found to be 3.24 µM·h, the Cmax amounted to 1790 nM, the Tmax is 0.63 h and the bioavailability turned out to be 24.8%. In data set [1], this compound showed a half-life of 1.6 h. At CYP2C19, the IC50 was greater than 50 µM. At CYP3A4, this compound showed an IC50 greater than 50 µM.
